Experimental data published in PMC5635695, “More than Enzymes That Make or Break Cyclic Di-GMP—Local Signaling in the Interactome of GGDEF/EAL Domain Proteins of Escherichia coli” (mBio, 2017).

Target: T1, CdgI GGDEF domain (GGDEF^CdgI) (Escherichia coli, UniProt P76236)
T1 construct: isolated cytoplasmic GGDEF domain (degenerate A-site, intact I-site), N-terminal MASE4 membrane domain removed; N-terminal His6 tag kept; pQE30xa in E. coli Fi8202
Test: UV cross-linking with [alpha-32P]c-di-GMP, SDS-PAGE
Format: binding
Details: 42 nM radiolabelled c-di-GMP, competition with unlabelled c-di-GMP; labelled compound

T1 sequence (P76236 315-491): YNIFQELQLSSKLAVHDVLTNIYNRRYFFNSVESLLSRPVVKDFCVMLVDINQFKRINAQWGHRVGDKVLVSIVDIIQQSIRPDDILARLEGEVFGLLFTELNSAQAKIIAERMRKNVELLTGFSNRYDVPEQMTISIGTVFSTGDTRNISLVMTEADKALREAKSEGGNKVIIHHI

For `Nc1nc2c(ncn2[C@@H]2O[C@@H]3COP(=O)(O)O[C@H]4[C@@H](O)[C@H](n5cnc6c(=O)[nH]c(N)nc65)O[C@@H]4COP(=O)(O)O[C@H]3[C@H]2O)c(=O)[nH]1` [c-di-GMP], the “UV cross-linking with [alpha-32P]c-di-GMP, SDS-PAGE” value was “We observed that purified CdgI could indeed bind c-di-GMP”.
